Data on 2 molecules can be found in paper PMC9582434, “Ryanodine receptor-active non-dioxin-like polychlorinated biphenyls cause neurobehavioral deficits in larval zebrafish” (Frontiers in Toxicology, 2022).

Data set [1] concerns larval zebrafish. As to conditions: 2020, cited from earlier work.
A further data set relates to RYR. Also on record: method as in Pessah et al., 2006; Holland et al., 2017a. Conditions: ref Pessah et al., 2006; Holland et al., 2017a; cited from earlier work.
In data set [2] the test system is RYR paralogs found in zebrafish skeletal muscle. Briefly: [3H]ryanodine ligand binding assay, adult zebrafish tail muscle microsomes. As to conditions: for EC2X: concentration causing two-fold induction in ligand binding vs DMSO control; for Max. response SEM (%): maximum [3H]Ry binding response compared to DMSO control, mean ± SEM; for pEC50: relative EC50, concentration causing half-maximum response, PCB 0.1–50 μM; for RYR activity (in words): zebrafish muscle. As to the method:
Sensitization of the zebrafish RYR by ortho-PCBs was measured using [^3H]ryanodine ([^3H]Ry) ligand binding assays as previously described ([Fritsch and Pessah, 2013]). Briefly, crude microsomal protein preparations were created from the tail (post dorsal fin) muscle (primarily white skeletal muscle) of six adult zebrafish (∼1 year old) that was homogenized in a buffer containing 320 mM sucrose, 5 mM HEPES, 1 mM PMSF, 10 mM NaF, 2 mM β-Glycerol, 5 mM Na4P2O7, 0.5 mM Na3VO4 and 2 μg/L leupeptin (pH 7.2). The homogenate was centrifuged at 5,000 × g (4°C) for 15 min. The pellet was re-homogenized in 5 ml homogenization buffer and centrifuged at 5,000 × g. Supernatants were combined for ultracentrifugation at 100,000 g (4°C for 1 h). The resultant pellet was re-suspended in a buffer of 320 mM sucrose and 5 mM HEPES (Sigma-Aldrich, St. Louis, MO, United States) at pH 7.2. Protein concentrations were determined in triplicate using a BCA Assay (Fisher Scientific, Waltham, MA, United States). [^3H]Ry ligand binding assays were conducted with 40 μg/ml of the crude protein homogenate in the presence of DMSO (0.5%) or 0.1–50 μM of individual PCB congeners in 0.5% DMSO. Tests were run using 5 nM [^3H]Ry (Perkin Elmer Waltham, MA, United States), 250 mM KCl, 20 mM HEPES, 15 mM NaCl, and 50 μM CaCl2 (pH 7.1) and incubated for 16 h at 25°C. Non-specific binding was determined with the addition of 10 µM ryanodine (Tocris Bioscience, Bristol, United Kingdom) and 200 μM EGTA (Sigma-Aldrich, St. Louis, MO, United States). Assays were terminated by rapid filtration through Whatman GF/B filter paper (Brandel, Gaithersburg, MD, United States) and washed with ice-cold buffer containing 140 mM KCl, 10 mM HEPES, and 0.1 mM CaCl2, pH 7.4. Bound radioligand was measured by liquid scintillation counting (Beckman Coulter, Indianapolis, IN, United States). PCB-induced [^3H]Ry binding was assessed in two different protein preparations, and each assay was run in triplicate. Individual PCB concentration-response curves were determined using non-linear regression (GraphPad Prism 6.0, GraphPad Software Inc., San Diego, CA, United States).

Data set [3] concerns larval zebrafish. The data set can be described thus: Larval photomotor behavior test (light/dark locomotor test). It is filed as in vivo. Conditions: for Behavior score (total change from control): sum of absolute [1 − (AUC value/DMSO)] over all concentrations, epochs and 3, 4, 5 dpf. As to the method: At 4 hpf, embryos were treated with 50 µl of 41 mg/ml protease from Streptomyces griseus (P5147, Sigma-Aldrich, St. Louis, MO, United States) in 25 ml of FW for a maximum of 6 min to remove the chorion ([Truong et al., 2011]). At 5 hpf, embryos were placed in individual wells of 96-well plates filled with 100 µl of EM. At 6 hpf, embryos were exposed to a 2× concentration of the selected PCB congeners or controls that were diluted in 100 μl EM to produce a 1× concentration in a total of 200 µl solution. […] After exposure, plates were covered with Parafilm M (Bemis NA, Neenah, WI, United States) to reduce evaporation and placed in an incubator at 28.5°C with 14 h light (∼300 lux)/10 h dark cycles. Final DMSO concentrations were 0.2% (vol/vol) for all exposures. Fish were statically exposed until 5 dpf.
Larval locomotor tests were performed at 3, 4, and 5 dpf. Vehicle and PCB-exposed larvae in 96-well plates were placed in a DanioVision behavior system (Noldus Information Technology, Leesburg, VA, United States) and subjected to a 35 min light/dark locomotor test. System and plate temperature were maintained at 28.5 ± 0.5°C using a temperature control unit from Noldus. The testing paradigm consisted of a 10 min light period (∼1,900 lux) to allow for acclimation (5 min) and to record baseline swimming (5 min). This was followed by a 5 min dark period (∼0 lux) to stimulate increased swimming behavior and a 5 min light period (∼1,900 lux) to stimulate freezing behavior. The last 15 min consisted of a dark period (∼0 lux) to observe increased swimming behavior and acclimation to the dark conditions.
The distance traveled binned per minute by each larva during the 35-min observation test period was recorded via continuous tracing using a DanioVision system camera with an infrared filter to allow recording in both light and dark conditions. Movement was tracked using EthoVisionXT software (Noldus Information Technology) and exported to Excel and Prism 6.0 (GraphPad Software) for analysis and visualization. Dead and/or malformed larvae (as noted by observation under dissecting scope) were excluded from the behavior analysis.
The trapezoidal rule was used to compute the area under the curve (AUC) for each fish per day per lighting condition. The first 5 min of the 35-min observation period was removed to account for initial acclimation. Therefore, data were analyzed for the following time epochs: Light 1 (L1) = 6–10 min, Dark 1 (D1) = 11–15 min, Light 2 (L2) = 16–20 min, and Dark 2 (D2) = 21–35 min. Mixed effects regression models, including zebrafish-specific random effects, were used to assess differences between groups. DMSO groups from each spawn date (≥3 independent spawns) and plate were combined in the analysis. Separate models were fit for each congener. New variables were defined to capture differences in the AUC between Light 1 and Dark 1, Dark 1 and Light 2, and Light 2 and Dark 2, to measure change in distance traveled when transitioning from light to dark or dark to light. Contrasts were specified to compare these transitions and the AUC during each of the lighting conditions between the exposed groups and the DMSO control group. […] Due to some zeroes in the AUC, all values were shifted by 0.1 prior to taking the natural logarithm. Concentration (0.1, 0.3, 1, 3, 10 µM and DMSO), day (3, 4, 5 dpf), and the transition variables were all of interest in the models, including their interactions. Akaike information criterion was used for model selection and Wald tests for comparing groups. All analyses were conducted using SAS version 9.4.
The neurotoxic potential of the congeners tested in this study were ranked based on the three endpoints measured in this study: RYR binding, behavior, and body burden. Congeners were ranked relative to each other for each individual endpoint from 1 (highest) to 6 (lowest), and then the three scores for each congener averaged to obtain an overall relative ranking for each congener. […]

pEC50: −log10 of the molar value.

For the molecule `Clc1ccc(Cl)c(-c2c(Cl)ccc(Cl)c2Cl)c1` [PCB 95, 2,2',3,5',6-pentachlorobiphenyl], the “malformations after developmental exposure” value in the data set with larval zebrafish [1] (exposure commenced shortly after fertilization, ref Ranasinghe et al.) is “caused malformations”. Moreover, the “in vitro potency at the RYR (in words)” value in the data set with RYR is reported as “potent”. In data set [2], this molecule showed an EC2X of 1.5. Also, in data set [2], the “Max. response SEM (%)” value amounted to 734.70 ± 49.87%. Besides, the “increase in [3H]Ry-binding” value in data set [2] (measure of channel activation) was about 800%. The molecule further had a pEC50 in data set [2] of 5.42. For the same molecule, the “RYR activity (in words)” value in data set [2] was “high”. The “L1-D1 transition relative to vehicle control” value is “moved more” in the data set on larval zebrafish [3] (0.1 µM, 4 dpf); “significantly less” in the data set with larval zebrafish [3] (3 µM, 5 dpf); “decreased” with larval zebrafish [3] (10 µM, 4 dpf); “decreased” in the data set with larval zebrafish [3] (10 µM, 5 dpf). Moreover, the “distance moved relative to vehicle control” value in the data set on larval zebrafish [3] (3 µM, 3 dpf, D2) is listed as “moved more”; in the data set with larval zebrafish [3] (3 µM, 3 dpf, L2), “moved more”; in the data set with larval zebrafish [3] (3 µM, 5 dpf, L1) it was “more”; with larval zebrafish [3] (10 µM, 3 dpf, D1) it was “significantly more”; in the data set with larval zebrafish [3] (10 µM, 3 dpf, D2), “significantly more”; with larval zebrafish [3] (10 µM, 3 dpf, L1), “significantly more”. In addition, the “distance moved relative to vehicle control” value is “significantly more” in the data set with larval zebrafish [3] (10 µM, 3 dpf, L2); “significantly less” in the data set with larval zebrafish [3] (10 µM, 4 dpf, D1); “significantly more” with larval zebrafish [3] (10 µM, 4 dpf, L1); “significantly more” with larval zebrafish [3] (10 µM, 4 dpf, L2); “significantly less” in the data set with larval zebrafish [3] (10 µM, 5 dpf, D1); “significantly less” with larval zebrafish [3] (10 µM, 5 dpf, D2). In addition, the “distance moved relative to vehicle control” value in the data set with larval zebrafish [3] (10 µM, 5 dpf, L1) was “more”. The “Behavior score (total change from control)” value with larval zebrafish [3] was 81.46.
On to `Clc1cc(Cl)c(-c2cc(Cl)c(Cl)cc2Cl)cc1Cl` [PCB 153, 2,2',4,4',5,5'-Hexachlorobiphenyl], for which the malformations or mortality entry in the data set with larval zebrafish [1] (larval zebrafish younger than 7 dpf, static exposure, up to 10 μM, ref Aluru et al.) was “no malformations or mortality”. Moreover, in the data set on RYR, the “in vitro potency at the RYR (in words)” value is “moderate”. The same molecule displayed an EC2X in data set [2] of 3.88. In data set [2], the “Max. response SEM (%)” value is listed as 320.40 ± 92.18%. Moreover, in data set [2], the negative logarithm of the EC50 (pEC50) was 5.36. Moreover, the “RYR activity (in words)” value in data set [2] was “moderate”. Further, the “L1-D1 transition relative to vehicle control” value in the data set with larval zebrafish [3] (0.3 µM, 4 dpf) is listed as “attenuating”; in the data set on larval zebrafish [3] (1 µM, 3 dpf), “larger”; in the data set with larval zebrafish [3] (10 µM, 3 dpf) it was “larger”; in the data set with larval zebrafish [3] (10 µM, 5 dpf), “attenuated”. The “distance moved relative to vehicle control” value with larval zebrafish [3] (0.3 µM, 4 dpf, L1) was “moved more”; in the data set with larval zebrafish [3] (1 µM, 3 dpf, D1), “moved more”; in the data set with larval zebrafish [3] (1 µM, 3 dpf, D2), “moved more”; with larval zebrafish [3] (1 µM, 3 dpf, L2), “moved more”; in the data set on larval zebrafish [3] (10 µM, 3 dpf, D1) it was “moved more”; in the data set with larval zebrafish [3] (10 µM, 3 dpf, D2) it was “moved more”. For the same molecule, the “distance moved relative to vehicle control” value with larval zebrafish [3] (10 µM, 3 dpf, L2) is recorded as “moved more”; in the data set on larval zebrafish [3] (10 µM, 4 dpf, L2), “moved more”; in the data set on larval zebrafish [3] (10 µM, 5 dpf, L1), “moved more”; in the data set with larval zebrafish [3] (10 µM, 5 dpf, L2), “more movement”. Further, the “Behavior score (total change from control)” value in the data set on larval zebrafish [3] was determined as 23.05.
